PMC5513037, “Examining the influence of specificity ligands and ATP-competitive ligands on the overall effectiveness of bivalent kinase inhibitors” (Proteome Science, 2017)

Experiments:
Assay in all cases: KAM-matrix competition in K562 lysate;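 on 0.001 uM KAM: median log10 fold change of treatment over DMSO control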;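 on 0.01 uM KAM: median log10 fold change of treatment over DMSO control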;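 on 0.1 uM KAM: median log10 fold change of treatment over DMSO control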;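 on 1 uM KAM: median log10 fold change of treatment over DMSO control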;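 on 10 uM KAM: median log10 fold change of treatment over DMSO control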
Type in all cases: binding
AURKA = target: T1, AURKA (Homo sapiens, UniProt O14965)
T1 construct: endogenous in cells; host or cells: K562
T1 sequence (O14965 1-403): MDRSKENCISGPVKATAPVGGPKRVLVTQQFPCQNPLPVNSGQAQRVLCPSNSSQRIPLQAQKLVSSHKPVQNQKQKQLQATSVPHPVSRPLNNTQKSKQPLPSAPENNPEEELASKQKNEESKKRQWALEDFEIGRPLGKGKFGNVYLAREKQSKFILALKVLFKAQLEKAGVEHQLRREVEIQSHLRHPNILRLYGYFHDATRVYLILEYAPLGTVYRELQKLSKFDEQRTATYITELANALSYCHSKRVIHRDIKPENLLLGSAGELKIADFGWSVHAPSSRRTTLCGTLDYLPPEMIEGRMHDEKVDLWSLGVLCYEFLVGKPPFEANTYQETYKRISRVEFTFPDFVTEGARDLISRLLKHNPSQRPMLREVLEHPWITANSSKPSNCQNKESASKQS
Procedure: (§1) Supplement 12953_2017_125_MOESM1_ESM.zip/MS_Supp Info.xlsx, sheet "KAM" | column: 10 uM KAM; 1 uM KAM; 0.1 uM KAM; 0.01 uM KAM; 0.001 uM KAM; RB50

CDK17 = target: T2, CDK17 (Homo sapiens, UniProt Q00537);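 on 0.001 uM KAM: median log10 fold change of treatment over DMSO control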;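 on 0.01 uM KAM: median log10 fold change of treatment over DMSO control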;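 on 0.1 uM KAM: median log10 fold change of treatment over DMSO control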;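 on 1 uM KAM: median log10 fold change of treatment over DMSO control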;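 on 10 uM KAM: median log10 fold change of treatment over DMSO control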
T2 construct: endogenous in cells; host or cells: K562 cell lysate
Procedure: as §1

EPHB4 = target: T3, EPHB4 (Homo sapiens, UniProt P54760)
T3 construct: endogenous in cells; host or cells: K562
T3 sequence (P54760 16-987): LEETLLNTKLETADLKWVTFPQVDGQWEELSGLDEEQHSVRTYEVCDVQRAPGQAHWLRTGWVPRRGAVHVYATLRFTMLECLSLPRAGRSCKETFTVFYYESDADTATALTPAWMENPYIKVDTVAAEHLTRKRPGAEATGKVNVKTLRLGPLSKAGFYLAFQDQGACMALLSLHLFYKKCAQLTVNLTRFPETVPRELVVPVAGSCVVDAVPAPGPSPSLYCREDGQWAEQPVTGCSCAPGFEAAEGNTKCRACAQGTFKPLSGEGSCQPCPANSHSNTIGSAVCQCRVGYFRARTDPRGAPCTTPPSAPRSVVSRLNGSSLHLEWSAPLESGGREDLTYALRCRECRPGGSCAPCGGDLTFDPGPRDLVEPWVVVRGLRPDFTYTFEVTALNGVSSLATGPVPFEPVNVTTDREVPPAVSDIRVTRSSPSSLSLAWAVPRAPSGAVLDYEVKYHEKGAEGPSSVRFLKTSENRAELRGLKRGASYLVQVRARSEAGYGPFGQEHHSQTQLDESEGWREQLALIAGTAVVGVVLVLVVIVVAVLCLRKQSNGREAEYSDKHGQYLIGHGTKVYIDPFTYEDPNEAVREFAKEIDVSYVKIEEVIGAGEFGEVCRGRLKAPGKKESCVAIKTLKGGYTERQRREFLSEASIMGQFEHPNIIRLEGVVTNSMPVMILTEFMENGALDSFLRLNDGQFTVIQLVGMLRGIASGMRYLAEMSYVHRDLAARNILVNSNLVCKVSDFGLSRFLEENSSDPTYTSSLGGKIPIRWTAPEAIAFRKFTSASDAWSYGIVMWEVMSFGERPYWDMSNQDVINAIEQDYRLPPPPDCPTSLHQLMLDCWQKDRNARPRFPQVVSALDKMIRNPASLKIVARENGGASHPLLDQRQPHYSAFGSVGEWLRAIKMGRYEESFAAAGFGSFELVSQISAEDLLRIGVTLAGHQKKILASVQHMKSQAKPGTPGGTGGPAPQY
Procedure: as §1

MAP3K4 = target: T4, MAP3K4 (Homo sapiens, UniProt Q9Y6R4);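 on 0.001 uM KAM: median log10 fold change of treatment over DMSO control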;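 on 0.01 uM KAM: median log10 fold change of treatment over DMSO control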;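 on 0.1 uM KAM: median log10 fold change of treatment over DMSO control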;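 on 1 uM KAM: median log10 fold change of treatment over DMSO control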;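 on 10 uM KAM: median log10 fold change of treatment over DMSO control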
T4 construct: endogenous in cells; host or cells: K562
Procedure: as §1

MAPK7 = target: T5, MAPK7 (Homo sapiens, UniProt Q13164);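 on 0.001 uM KAM: median log10 fold change of treatment over DMSO control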;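 on 0.01 uM KAM: median log10 fold change of treatment over DMSO control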;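 on 0.1 uM KAM: median log10 fold change of treatment over DMSO control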;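 on 1 uM KAM: median log10 fold change of treatment over DMSO control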;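 on 10 uM KAM: median log10 fold change of treatment over DMSO control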
T5 construct: endogenous in cells; host or cells: K562
Procedure: as §1

NTRK1 = target: T6, NTRK1 (Homo sapiens, UniProt P04629)
T6 construct: endogenous in cells; host or cells: K562
Procedure: as §1

PBK = target: T7, PBK (Homo sapiens, UniProt Q96KB5);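 on 0.001 uM KAM: median log10 fold change of treatment over DMSO control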;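 on 0.01 uM KAM: median log10 fold change of treatment over DMSO control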;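 on 0.1 uM KAM: median log10 fold change of treatment over DMSO control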;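 on 1 uM KAM: median log10 fold change of treatment over DMSO control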;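 on 10 uM KAM: median log10 fold change of treatment over DMSO control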
T7 construct: endogenous in cells; host or cells: K562
T7 sequence (Q96KB5 1-322): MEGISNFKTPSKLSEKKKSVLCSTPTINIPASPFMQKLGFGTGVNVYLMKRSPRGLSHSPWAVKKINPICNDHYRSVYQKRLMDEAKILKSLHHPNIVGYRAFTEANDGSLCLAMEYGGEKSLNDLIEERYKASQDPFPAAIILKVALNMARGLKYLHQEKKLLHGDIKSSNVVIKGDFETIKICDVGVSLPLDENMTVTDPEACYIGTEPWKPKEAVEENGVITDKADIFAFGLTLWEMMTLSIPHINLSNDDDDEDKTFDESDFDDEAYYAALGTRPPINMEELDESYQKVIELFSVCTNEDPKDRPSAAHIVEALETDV
Procedure: as §1

[1] = read-out: RB50 (the source's name)
[2] = KAM 0.001-10 uM, read-out: RB50 (the source's name)

T6 sequence (P04629 33-796): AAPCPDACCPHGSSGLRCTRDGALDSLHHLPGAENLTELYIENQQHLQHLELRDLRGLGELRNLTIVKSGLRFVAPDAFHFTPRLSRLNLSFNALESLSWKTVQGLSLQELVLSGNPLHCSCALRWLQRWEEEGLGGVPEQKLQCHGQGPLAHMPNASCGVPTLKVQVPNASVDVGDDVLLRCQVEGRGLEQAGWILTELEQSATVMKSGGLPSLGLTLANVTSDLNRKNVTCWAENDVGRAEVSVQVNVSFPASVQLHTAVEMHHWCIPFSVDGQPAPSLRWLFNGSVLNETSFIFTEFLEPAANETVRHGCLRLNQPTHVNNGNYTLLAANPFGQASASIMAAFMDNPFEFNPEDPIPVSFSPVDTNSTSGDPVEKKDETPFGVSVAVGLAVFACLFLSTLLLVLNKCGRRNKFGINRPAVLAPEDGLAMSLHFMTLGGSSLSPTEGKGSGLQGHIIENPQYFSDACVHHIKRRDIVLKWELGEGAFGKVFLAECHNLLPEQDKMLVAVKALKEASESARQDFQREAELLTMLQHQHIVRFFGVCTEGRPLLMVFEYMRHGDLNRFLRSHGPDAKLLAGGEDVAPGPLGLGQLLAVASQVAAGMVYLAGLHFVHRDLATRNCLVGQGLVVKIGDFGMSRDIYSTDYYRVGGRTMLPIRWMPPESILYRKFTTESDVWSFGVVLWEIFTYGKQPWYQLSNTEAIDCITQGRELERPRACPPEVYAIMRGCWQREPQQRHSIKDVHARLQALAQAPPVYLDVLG
T4 sequence (Q9Y6R4 whole entry): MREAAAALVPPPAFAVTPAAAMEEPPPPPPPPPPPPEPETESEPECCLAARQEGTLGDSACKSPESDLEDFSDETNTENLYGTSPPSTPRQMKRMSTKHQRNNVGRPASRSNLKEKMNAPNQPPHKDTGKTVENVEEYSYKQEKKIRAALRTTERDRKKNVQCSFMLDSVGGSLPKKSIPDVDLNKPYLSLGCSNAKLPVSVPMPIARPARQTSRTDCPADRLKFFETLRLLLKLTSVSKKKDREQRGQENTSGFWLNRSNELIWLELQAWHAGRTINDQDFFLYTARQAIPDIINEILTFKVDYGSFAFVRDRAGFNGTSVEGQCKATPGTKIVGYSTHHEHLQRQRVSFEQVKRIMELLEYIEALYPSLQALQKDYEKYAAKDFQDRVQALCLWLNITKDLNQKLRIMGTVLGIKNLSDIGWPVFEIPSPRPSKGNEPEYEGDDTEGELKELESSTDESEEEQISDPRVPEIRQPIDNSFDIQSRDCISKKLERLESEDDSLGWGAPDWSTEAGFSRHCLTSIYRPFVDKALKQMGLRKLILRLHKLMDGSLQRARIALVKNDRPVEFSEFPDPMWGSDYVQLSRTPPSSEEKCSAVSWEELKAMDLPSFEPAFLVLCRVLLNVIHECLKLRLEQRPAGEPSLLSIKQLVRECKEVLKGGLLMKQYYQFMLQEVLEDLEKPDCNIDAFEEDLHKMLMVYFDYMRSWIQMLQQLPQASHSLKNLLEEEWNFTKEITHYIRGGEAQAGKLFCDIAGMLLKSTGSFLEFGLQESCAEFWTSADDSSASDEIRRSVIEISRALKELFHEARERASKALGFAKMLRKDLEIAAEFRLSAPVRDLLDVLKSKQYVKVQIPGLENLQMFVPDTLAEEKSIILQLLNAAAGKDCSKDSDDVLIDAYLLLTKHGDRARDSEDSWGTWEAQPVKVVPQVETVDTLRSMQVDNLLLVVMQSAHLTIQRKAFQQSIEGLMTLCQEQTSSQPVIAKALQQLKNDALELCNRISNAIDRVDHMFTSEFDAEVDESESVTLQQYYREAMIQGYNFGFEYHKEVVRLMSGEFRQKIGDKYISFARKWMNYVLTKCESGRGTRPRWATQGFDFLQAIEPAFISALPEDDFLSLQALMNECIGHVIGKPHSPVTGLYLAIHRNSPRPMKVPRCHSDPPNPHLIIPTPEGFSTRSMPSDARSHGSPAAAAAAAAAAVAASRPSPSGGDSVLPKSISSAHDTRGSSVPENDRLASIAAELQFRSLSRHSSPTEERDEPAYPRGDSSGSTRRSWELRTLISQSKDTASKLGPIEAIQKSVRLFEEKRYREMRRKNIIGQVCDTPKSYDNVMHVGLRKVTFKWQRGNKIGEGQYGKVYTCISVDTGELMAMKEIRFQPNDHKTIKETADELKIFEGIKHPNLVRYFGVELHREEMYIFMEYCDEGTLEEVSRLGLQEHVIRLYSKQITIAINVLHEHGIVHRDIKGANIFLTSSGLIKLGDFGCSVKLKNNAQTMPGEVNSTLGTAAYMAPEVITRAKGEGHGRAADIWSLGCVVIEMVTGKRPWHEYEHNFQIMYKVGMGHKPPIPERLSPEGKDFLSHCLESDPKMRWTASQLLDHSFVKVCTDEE
T5 sequence (Q13164 whole entry): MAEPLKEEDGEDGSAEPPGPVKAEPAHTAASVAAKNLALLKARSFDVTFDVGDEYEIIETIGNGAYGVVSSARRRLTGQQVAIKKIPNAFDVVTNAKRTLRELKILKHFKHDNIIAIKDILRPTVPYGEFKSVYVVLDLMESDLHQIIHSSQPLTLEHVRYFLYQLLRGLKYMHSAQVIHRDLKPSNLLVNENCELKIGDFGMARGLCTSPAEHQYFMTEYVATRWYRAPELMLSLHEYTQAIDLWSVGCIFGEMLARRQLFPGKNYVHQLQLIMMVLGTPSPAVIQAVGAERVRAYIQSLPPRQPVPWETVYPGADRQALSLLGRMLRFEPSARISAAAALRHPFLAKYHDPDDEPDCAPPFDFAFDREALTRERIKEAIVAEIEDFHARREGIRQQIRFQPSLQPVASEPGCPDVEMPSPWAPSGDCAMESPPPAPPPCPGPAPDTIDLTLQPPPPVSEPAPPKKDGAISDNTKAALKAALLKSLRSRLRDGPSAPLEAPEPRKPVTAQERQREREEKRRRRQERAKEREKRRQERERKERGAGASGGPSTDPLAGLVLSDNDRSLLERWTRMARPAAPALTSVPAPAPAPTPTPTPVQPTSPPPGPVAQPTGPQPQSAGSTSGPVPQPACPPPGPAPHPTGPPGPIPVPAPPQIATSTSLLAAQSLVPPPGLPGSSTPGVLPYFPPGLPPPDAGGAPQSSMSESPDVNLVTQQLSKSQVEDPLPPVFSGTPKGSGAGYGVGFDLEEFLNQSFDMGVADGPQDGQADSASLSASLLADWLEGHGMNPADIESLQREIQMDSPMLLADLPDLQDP
T2 sequence (Q00537 whole entry): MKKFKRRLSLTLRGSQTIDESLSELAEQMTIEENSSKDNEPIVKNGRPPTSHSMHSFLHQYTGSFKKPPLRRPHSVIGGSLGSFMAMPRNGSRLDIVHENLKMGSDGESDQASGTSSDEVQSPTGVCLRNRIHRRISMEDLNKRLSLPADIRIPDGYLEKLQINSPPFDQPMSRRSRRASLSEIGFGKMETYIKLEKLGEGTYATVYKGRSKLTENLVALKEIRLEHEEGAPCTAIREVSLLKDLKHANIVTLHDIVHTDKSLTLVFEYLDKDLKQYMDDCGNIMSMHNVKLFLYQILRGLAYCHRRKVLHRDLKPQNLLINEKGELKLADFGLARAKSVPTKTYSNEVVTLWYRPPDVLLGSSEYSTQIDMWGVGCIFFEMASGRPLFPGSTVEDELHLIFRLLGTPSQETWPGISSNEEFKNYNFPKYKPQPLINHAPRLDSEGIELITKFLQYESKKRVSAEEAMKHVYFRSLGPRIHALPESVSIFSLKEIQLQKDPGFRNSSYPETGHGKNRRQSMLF

Structure (SMILES): N#CCc1ccc(Nc2nc(NCCCN)cc(Nc3cc(C4CC4)[nH]n3)n2)cc1 [KAM]
- median Log10 fold change (AURKA; 0.001 uM KAM): 0.0112
- median Log10 fold change (AURKA; 0.01 uM KAM): -0.01229
- median Log10 fold change (AURKA; 0.1 uM KAM): -0.2365
- median Log10 fold change (AURKA; 1 uM KAM): -0.473
- median Log10 fold change (AURKA; 10 uM KAM): -0.552
- IC50 (AURKA; [1]): 257 nM
- IC50 (CDK17; [2]): > 10 µM
- 0.001 uM KAM (CDK17; relative to 0 uM KAM = 0): -0.02399
- 0.01 uM KAM (CDK17; relative to 0 uM KAM = 0): -0.01557
- 0.1 uM KAM (CDK17; relative to 0 uM KAM = 0): -0.06864
- 1 uM KAM (CDK17; relative to 0 uM KAM = 0): -0.1892
- 10 uM KAM (CDK17; relative to 0 uM KAM = 0): -0.2802
- median Log10 fold change (EPHB4; 0.001 uM KAM): -0.01696
- median Log10 fold change (EPHB4; 0.01 uM KAM): -0.007903
- median Log10 fold change (EPHB4; 0.1 uM KAM): -0.1428
- median Log10 fold change (EPHB4; 1 uM KAM): -0.3696
- median Log10 fold change (EPHB4; 10 uM KAM): -0.517
- IC50 (EPHB4; [1]): 717 nM
- IC50 (MAP3K4; [2]): > 10 µM
- 0.001 uM KAM (MAP3K4; relative to 0 uM KAM = 0): -0.03643
- 0.01 uM KAM (MAP3K4; relative to 0 uM KAM = 0): -0.006572
- 0.1 uM KAM (MAP3K4; relative to 0 uM KAM = 0): -0.06704
- 1 uM KAM (MAP3K4; relative to 0 uM KAM = 0): -0.09539
- 10 uM KAM (MAP3K4; relative to 0 uM KAM = 0): -0.1299
- IC50 (MAPK7; [2]): > 10 µM
- 0.001 uM KAM (MAPK7; relative to 0 uM KAM = 0): -0.02869
- 0.01 uM KAM (MAPK7; relative to 0 uM KAM = 0): 0.01229
- 0.1 uM KAM (MAPK7; relative to 0 uM KAM = 0): -0.142
- 1 uM KAM (MAPK7; relative to 0 uM KAM = 0): -0.1326
- 10 uM KAM (MAPK7; relative to 0 uM KAM = 0): -0.1898
- median Log10 fold change (NTRK1; 0.001 uM KAM): -0.002125
- median Log10 fold change (NTRK1; 0.01 uM KAM): -0.003481
- median Log10 fold change (NTRK1; 0.1 uM KAM): -0.123
- median Log10 fold change (NTRK1; 1 uM KAM): -0.3463
- median Log10 fold change (NTRK1; 10 uM KAM): -0.5086
- IC50 (NTRK1; [1]): 869 nM
- IC50 (PBK; [2]): > 10 µM
- 0.001 uM KAM (PBK; relative to 0 uM KAM = 0): 0.04398
- 0.01 uM KAM (PBK; relative to 0 uM KAM = 0): 0.009269
- 0.1 uM KAM (PBK; relative to 0 uM KAM = 0): 0.0383
- 1 uM KAM (PBK; relative to 0 uM KAM = 0): 0.01738
- 10 uM KAM (PBK; relative to 0 uM KAM = 0): 0.0482
